Assay results as given in PubChem BioAssay AID328 (DTP/NCI, 2004).
“And” between values parts separate entries of the source, which are not always exact repeats. Identical values can stand only once. Toxic doses and inconclusive results are not listed.

Test system: BDF1 mice, P388 leukemia ip, median survival T/C
Experiment: NCI In Vivo Anticancer Drug Screen. Data for tumor model P388 Leukemia (intraperitoneal) in B6D2F1 (BDF1) mice
Conditions: endpoint: median survival time, higher = longer survival
In short: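 Reported as T/C, where T is the survival measurement in dosed animals and C the same measurement in vehicle controls.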

[1] = dose: 50.0 mg/kg/injection, schedule: Q01DX009 (ip), vehicle: saline with Tween-80

`Cn1cnc([N+](=O)[O-])c1[Se]c1ncnc2c1ccn2C1OC(CO)C(O)C1O` (configuration not stated) was tested, and the T/C (dose: 6.25 mg/kg/injection, schedule: Q01DX009 (ip), vehicle: saline) was 107 % of control, the T/C (dose: 12.5 mg/kg/injection, schedule: Q01DX009 (ip), vehicle: saline) was 88 % of control and the T/C (dose: 25.0 mg/kg/injection, schedule: Q01DX009 (ip), vehicle: saline) was 102 % of control. For the same compound, the T/C (dose: 100.0 mg/kg/injection, schedule: Q04DX003 (ip), vehicle: saline) was 100 % of control and the T/C (dose: 200.0 mg/kg/injection, schedule: Q04DX003 (ip), vehicle: saline) was 104 % of control.
In the case of `O=c1nc(Oc2ccccc2)nc2cnccn12`, the T/C [1] is reported as 88 % of control and the T/C (dose: 100.0 mg/kg/injection, schedule: Q01DX009 (ip), vehicle: saline with Tween-80) is reported as 88 % of control.
`CCC(C#N)C1=CCCCCC1` (configuration not stated) was tested, and the T/C (dose: 25.0 mg/kg/injection, schedule: Q04DX003 (ip), vehicle: saline with Tween-80) was 109 % of control, the T/C (dose: 50.0 mg/kg/injection, schedule: Q04DX003 (ip), vehicle: saline with Tween-80) was 121 % of control and the T/C (dose: 100.0 mg/kg/injection, schedule: Q04DX003 (ip), vehicle: saline with Tween-80) was 118 % of control.
With `[Co].[N-]=C=S.[N-]=C=S.[N-]=C=S.[NH2-].[NH2-].[NH2-]` the T/C (dose: 12.5 mg/kg/injection, schedule: Q01DX005 (ip), vehicle: saline with Tween-80) was 107 % of control, the T/C (dose: 25.0 mg/kg/injection, schedule: Q01DX005 (ip), vehicle: saline with Tween-80) was 110 % of control and the T/C (dose: 50.0 mg/kg/injection, schedule: Q01DX005 (ip), vehicle: saline with Tween-80) was 117 % of control. For the same compound, the T/C (dose: 100.0 mg/kg/injection, schedule: Q01DX001 (ip), vehicle: suspension in saline) was 98 % of control, the T/C (dose: 200.0 mg/kg/injection, schedule: Q01DX001 (ip), vehicle: suspension in saline) was 120 % of control and the T/C (dose: 400.0 mg/kg/injection, schedule: Q01DX001 (ip), vehicle: suspension in saline) was 98 % of control.
In the case of `NNc1cccc(Cl)n1`, the T/C [1] is reported as 103 % of control.
With `COc1cc([C@@H]2c3cc4c(cc3[C@@H](OC3OC5COC(C)OC5C(O)C3O)[C@H]3COC(=O)[C@H]23)OCO4)cc(OC)c1O` (some centres not stated) the T/C (dose: 7.48 mg/kg/injection, schedule: Q04DX003 (ip), vehicle: other) was 225 % of control, the T/C (dose: 11.8 mg/kg/injection, schedule: Q04DX003 (ip), vehicle: Klucel (hydroxypropylcellulose) (HPC)) was 533 % of control and the T/C (dose: 11.8 mg/kg/injection, schedule: Q04DX003 (ip), vehicle: saline) was 170 % of control. The T/C (dose: 12.0 mg/kg/injection, schedule: Q04DX003 (ip), vehicle: saline) was 287 % of control, the T/C (dose: 12.5 mg/kg/injection, schedule: Q04DX003 (ip), vehicle: other) was 266 % of control and the T/C (dose: 17.8 mg/kg/injection, schedule: Q04DX003 (ip), vehicle: Klucel (hydroxypropylcellulose) (HPC)) was 535 % of control. The T/C (dose: 17.8 mg/kg/injection, schedule: Q04DX003 (ip), vehicle: saline) was 200 % of control, the T/C (dose: 18.0 mg/kg/injection, schedule: Q04DX003 (ip), vehicle: Klucel (hydroxypropylcellulose) (HPC)) was 476 % of control and the T/C (dose: 18.0 mg/kg/injection, schedule: Q04DX003 (ip), vehicle: saline) was 548 % of control. The T/C (dose: 22.08 mg/kg/injection, schedule: Q04DX003 (ip), vehicle: other) was 490 % of control, the T/C (dose: 27.0 mg/kg/injection, schedule: Q04DX003 (ip), vehicle: Klucel (hydroxypropylcellulose) (HPC)) was 535 % of control and the T/C (dose: 27.0 mg/kg/injection, schedule: Q04DX003 (ip), vehicle: saline) was 550 % of control and 222 % of control. The T/C (dose: 30.0 mg/kg/injection, schedule: Q04DX003 (ip), vehicle: Klucel (hydroxypropylcellulose) (HPC)) was 242 % of control, the T/C (dose: 34.6 mg/kg/injection, schedule: Q04DX003 (ip), vehicle: other) was 491 % of control and the T/C (dose: 40.0 mg/kg/injection, schedule: Q04DX003 (ip), vehicle: saline) was 550 % of control. For the same compound, the T/C (dose: 40.5 mg/kg/injection, schedule: Q04DX003 (ip), vehicle: Klucel (hydroxypropylcellulose) (HPC)) was 535 % of control, the T/C (dose: 40.5 mg/kg/injection, schedule: Q04DX003 (ip), vehicle: saline) was 300 % of control and the T/C (dose: 60.0 mg/kg/injection, schedule: Q04DX003 (ip), vehicle: saline) was 202 % of control.
With `CCCCCCC(=O)/C=C/c1ccc(Cl)c(Cl)c1` the T/C (dose: 75.0 mg/kg/injection, schedule: Q01DX009 (ip), vehicle: saline with Tween-80) was 106 % of control, the T/C (dose: 150.0 mg/kg/injection, schedule: Q01DX009 (ip), vehicle: saline with Tween-80) was 98 % of control and the T/C (dose: 300.0 mg/kg/injection, schedule: Q01DX009 (ip), vehicle: saline with Tween-80) was 93 % of control.
In the case of `N/C(=N/O)c1[nH]cnc1N`, the T/C (dose: 12.5 mg/kg/injection, schedule: Q01DX009 (ip), vehicle: water) is reported as 101 % of control, the T/C (dose: 25.0 mg/kg/injection, schedule: Q01DX009 (ip), vehicle: water) is reported as 97 % of control and the T/C (dose: 50.0 mg/kg/injection, schedule: Q01DX009 (ip), vehicle: water) is reported as 103 % of control. The T/C (dose: 100.0 mg/kg/injection, schedule: Q01DX009 (ip), vehicle: water) was 103 % of control.
